According to article PMC7582656, “The Hirudo Medicinalis Microbiome Is a Source of New Antimicrobial Peptides” (International Journal of Molecular Sciences, 2020):
Converted amounts (≈) assume the structure as drawn. “Also recorded” adds a separate entry of the source. Where two headings read alike, the source gives them in different places. Where no end group is shown, it is not given here.

Legend:
S. haemolyticus 527 = format: cell-based, Staphylococcus haemolyticus
Method: (§1) The minimum inhibitory concentration (MIC) of peptides was determined by the standard microtiter dilution method, as performed previously. Briefly, the MIC was determined by growing the microorganisms in 96-well microtitration plates in the presence of a two-fold serial dilution of the peptides. […] Mueller Hinton broth (MHB, BD Difco, Thermo Fisher Scientific Inc., Waltham, MA, USA) was used for all cultures, including Bacillus subtilis 168HT, Staphylococcus aureus ST 88, Staphylococcus haemolyticus 527 (clinical isolate), and Escherichia coli K12 substr. MG1655 strains. Each experiment was performed in triplicate with positive (melittin (Merck Company Inc., Kenilworth, NJ, USA)) and negative (without peptide) inhibition controls.

S. aureus ST 88 = format: cell-based, Staphylococcus aureus
Method: as §1

McCoy cells [1] = assay: LIVE/DEAD viability/cytotoxicity assay, fluorescent images; format: cell-based, mouse; details: 24 h
Method: (§2) The cytotoxicity of peptides towards the mouse fibroblast cell line McCoy was determined via the LIVE/DEAD™ Viability/Cytotoxicity Kit (Thermo Fisher Scientific Inc., Waltham, MA, USA) according to the manufacturer′s recommendations, as performed previously. […] Melittin was used as a negative control, and McCoy cells treated without peptides were used as a positive control. After peptide exposure, cells were washed and then stained with PBS containing calcein AM and ethidium homodimer–1 at concentrations of 0.3 and 1.25 μM, respectively, for 30 min at 37 °C. After staining, the cells were washed twice with PBS. The images were captured using an epifluorescence microscope with the respective filter cubes from 10 occasionally selected fields of view captured for each well with a 20× objective. Images were captured for FITC and TRITC channels. The numbers of cells in both channels were quantified with the ImageJ software (version 1.48; RSB).

E. coli ATCC25922 = details: ref Porto et al. [32]; cited from earlier work
From the text: According to numerous studies, the actions of AMPs on bacteria are diverse and appear to be dependent on the target and the peptide concentration. The speed of the antimicrobial effect of different AMPs can vary greatly.

B. subtilis 168HT = format: cell-based, Bacillus subtilis
Method: as §1

[2] = test system: E. coli K12 substr MG1655; format: cell-based, Escherichia coli; details: two-fold serial dilution, 96-well plates, Mueller Hinton broth, triplicate
Method: as §1

McCoy cells [3] = assay: Cytotoxicity by live/dead assay and lactate dehydrogenase assay together; format: cell-based, mouse; details: 24 and 48 h, peptide at 4x MIC, live/dead fluorescence imaging and LDH assay
Method: We applied two techniques: Fluorescence imaging of dead and living cells (live/dead viability/cytotoxicity assay, Table 3, Figure S2) and a colorimetric assay (lactate dehydrogenase assay, Figure S3).
as §2
The cytotoxicity of peptides was also measured by a lactate dehydrogenase (LDH) assay kit (Merck Company Inc., Kenilworth, NJ, USA) according to the manufacturer′s recommendations. Briefly, 100 μL of McCoy cells per well were seeded on 96-well culture plates at a density of 2 × 10^5 cells/mL and incubated for 24 h at 37 °C with peptides at a final concentration equal to 4× MIC. Melittin was used as a negative control, and McCoy cells treated without peptides were used as a positive control. The growth medium without peptides was used as blank absorbance readings. After the peptide treatment, the plate with cells was centrifuged for 10 min at 900 g, and 50 μL of medium from each well was transferred to another plate. Fifty microlitres of the prepared LDH kit solution were added to each well. All manipulations were performed in the dark. The absorbance of the wells was measured after 15 min incubation in the dark at wavelengths of 495 and 690 nm using a Multiscan Ascent microtiter plate reader (Thermo Fisher Scientific Inc., Waltham, MA, USA). The specific absorbance of each sample was calculated according to the equation:Absorbance = A495 nm (Test) − A495 nm (Blank) − A690 nm (Test)
The percentage of cell viability was recalculated according to the control values.

For `CC[C@H](C)[C@H](NC(=O)CN)C(=O)NCC(=O)N[C@@H](C)C(=O)N[C@H](C(=O)N[C@@H](CC(C)C)C(=O)N[C@@H](CCCCN)C(=O)N[C@H](C(=O)N[C@@H](CC(C)C)C(=O)N[C@H](C(=O)N[C@H](C(=O)NCC(=O)N[C@@H](CC(C)C)C(=O)N1CCC[C@H]1C(=O)N[C@@H](C)C(=O)N[C@@H](CC(C)C)C(=O)N[C@H](C(=O)N[C@@H](CO)C(=O)N[C@@H](Cc1c[nH]c2ccccc12)C(=O)N[C@H](C(=O)N[C@@H](CCCCN)C(=O)N[C@@H](CCCNC(=N)N)C(=O)N[C@@H](CCCCN)C(=O)N[C@@H](CCCNC(=N)N)C(=O)N[C@@H](CCC(N)=O)C(=O)N[C@@H](CCC(N)=O)C(N)=O)[C@@H](C)CC)[C@@H](C)CC)[C@@H](C)O)[C@@H](C)O)C(C)C)C(C)C` [Melittin, melittin, reference compound], the MIC (S. haemolyticus 527; S. haemolyticus 527 (clinical isolate), two-fold serial dilution, 96-well plates, Mueller Hinton broth, triplicate) was 5.7 µM (≈ 16.2 µg/mL), the MIC (S. aureus ST 88; S. aureus ST 88 (MRSA), two-fold serial dilution, 96-well plates, Mueller Hinton broth, triplicate) was 1.5 µM (≈ 4.27 µg/mL) and the “Cell Viability, %” value (McCoy cells [1]; McCoy cells, 37 °C, peptide at 4× MIC, calcein AM / ethidium homodimer-1 staining, fluorescent images, mean ± SD (n = 3)) was 0.3 ± 0.1 %. For the same compound, the “Time to kill E. coli ATCC25922” value (E. coli ATCC25922) was 10 s, the MIC (B. subtilis 168HT; B. subtilis 168HT, two-fold serial dilution, 96-well plates, Mueller Hinton broth, triplicate) was 1.5 µM (≈ 4.27 µg/mL) and the MIC [2] was 5.7 µM (≈ 16.2 µg/mL).

With FLIGKAIKRKFCLRSVWNA-NH2 [pept_1545] the MIC (S. aureus ST 88; ST 88) was greater than 100 µM, the “Cell Viability, %” value (McCoy cells [1]; 4 MIC) was 98.7 ± 1.3% and the MIC (B. subtilis 168HT; 168HT) was 7.2 µM. The “Cytotoxicity (in words)” value (McCoy cells [3]) was “did not exert any inhibition of cell growth even after 48 h; also recorded: did not cause cell death”.

For FVKILAKLVNYAKN [pept_970], the MIC (S. haemolyticus 527; 527) was greater than 100 µM, the MIC (S. aureus ST 88; ST 88) was greater than 100 µM and the “Cell Viability, %” value (McCoy cells [1]; 4 MIC) was 2.7 ± 2.1 %. For the same compound, the MIC (B. subtilis 168HT; 168HT) was 19.8 µM and the “Cytotoxicity (in words)” value (McCoy cells [3]) was “strong cytotoxicity comparable to melittin”.

For IGRHFKRRNSIWGICWF [pept_1303], the MIC (S. aureus ST 88; ST 88) was greater than 100 µM, the “Cell Viability, %” value (McCoy cells [1]; 4 MIC) was 25.1 ± 8.3 % and the MIC (B. subtilis 168HT; 168HT) was 14.8 µM. For the same compound, the “Cytotoxicity (in words)” value (McCoy cells [3]) was “reduced the cell viability to a lesser but still severe degree”.

With IVKRFFRISYKLQSLKIIKGKRTFT [pept_84] the MIC (S. haemolyticus 527; 527) was 5.3 µM, the MIC (S. aureus ST 88; ST 88) was greater than 100 µM and the “Cell Viability, %” value (McCoy cells [1]; 4 MIC) was 11.2 ± 7.4 %. For the same compound, the MIC (B. subtilis 168HT; 168HT) was 5.3 µM and the “Cytotoxicity (in words)” value (McCoy cells [3]) was “reduced the cell viability to a lesser but still severe degree”.

With KKGKSFKQLHIIVHLVKSWLRTILTHI [pept_352] the MIC (S. haemolyticus 527; 527) was 10 µM, the MIC (S. aureus ST 88; ST 88) was 19.9 µM and the “Cell Viability, %” value (McCoy cells [1]; 4 MIC) was 0.2 ± 0.1 %. The MIC (B. subtilis 168HT; 168HT) was 10 µM and the “Cytotoxicity (in words)” value (McCoy cells [3]) was “strong cytotoxicity comparable to melittin”.

With VLIRGLIHMLRGG [pept_148] the MIC (S. haemolyticus 527; 527) was greater than 100 µM, the MIC (S. aureus ST 88; ST 88) was greater than 100 µM and the “Cell Viability, %” value (McCoy cells [1]; 4 MIC) was 98.3 ± 0.9%. The MIC (B. subtilis 168HT; 168HT) was 22.4 µM and the “Cytotoxicity (in words)” value (McCoy cells [3]) was “did not exert any inhibition of cell growth even after 48 h; also recorded: did not cause cell death”.

For guavanin 2, the “Time of lytic effect” value (E. coli ATCC25922) is listed as 10 min.
